# How the values were obtained:
# [1] = target: T1, Insulin-like growth factor 1 receptor (Homo sapiens, UniProt P08069); test: Inhibition of human GST-rTEV-tagged IGF1R (957 to 1367 residues) expressed in baculovirus infected insect Sf9 cells assessed as decrease in biotin-aminohexyl-AEEEEYMMMMAKKKK-NH2 phosphorylation after 1 hr by fluorometer
# Insulin receptor [2] = target: T2, Insulin receptor (Homo sapiens, UniProt P06213); test: Inhibition of human GST-rTEV-tagged insulin receptor (979 to 1382 residues) expressed in baculovirus infected insect Sf9 cells assessed as decrease in biotin-aminohexyl-AEEEEYMMMMAKKKK-NH2 phosphorylation after 1 hr by fluorometer
# [3] = Toxicity in nude mouse allografted with mouse LISN cells assessed as body weight loss at 50 to 100 mg/kg, qd for 21 days measured during compound dosing; assay type: organism-based; details: 504 h
# Insulin receptor [4] = target: T2, Insulin receptor; test: Inhibition of insulin-induced human insulin receptor autophosphorylation expressed in mouse NIH-3T3 cells preincubated for 2 hrs followed by insulin induction measured after 15 mins by DELFIA; assay type: cell-based, NIH3T3
# [5] = target: T1, Insulin-like growth factor 1 receptor; test: Inhibition of IGF1-induced human IGF1R autophosphorylation expressed in mouse NIH-3T3 cells preincubated for 2 hrs followed by IGF-1 induction measured after 15 mins by DELFIA; assay type: cell-based, NIH3T3
# [6] = Toxicity in nude mouse allografted with mouse LISN cells assessed as body weight loss at 30 mg/kg, qd for 21 days measured during compound dosing relative to control; assay type: organism-based; details: in vivo, 504 h
# [7] = Toxicity in nude mouse allografted with mouse LISN cells assessed as body weight loss at 60 mg/kg, qd for 21 days measured during compound dosing relative to control; assay type: organism-based; details: in vivo, 504 h
# [8] = Cytotoxicity against human RL cells after 3 days by InCell analyser assay; assay type: functional, cell-based; details: 72 h
# [9] = Cytotoxicity against human GCT cells after 3 days by InCell analyser assay; assay type: functional, cell-based; details: 72 h
# [10] = Cytotoxicity against HOS cells after 3 days by InCell analyser assay; assay type: functional, cell-based; details: Homo sapiens, 72 h
# [11] = Cytotoxicity against human MT3 cells after 3 days by InCell analyser assay; assay type: functional, cell-based; details: MT-3, 72 h
# [12] = Cytotoxicity against human BC3 cells after 3 days by InCell analyser assay; assay type: functional, cell-based; details: BC-3, 72 h
# [13] = Cytotoxicity against human BC2 cells after 3 days by InCell analyser assay; assay type: functional, cell-based; details: BC-2, 72 h
# [14] = Cytotoxicity against human SR cells after 3 days by InCell analyser assay; assay type: functional, cell-based; details: 72 h
# [15] = Cytotoxicity against human JAR cells after 3 days by InCell analyser assay; assay type: functional, cell-based; details: 72 h
# [16] = Cytotoxicity against human ES2 cells after 3 days by InCell analyser assay; assay type: functional, cell-based; details: ES-2, 72 h
# [17] = Cytotoxicity against human SH4 cells after 3 days by InCell analyser assay; assay type: functional, cell-based; details: SH-4, 72 h
# [18] = Cytotoxicity against human BC1 cells after 3 days by InCell analyser assay; assay type: functional, cell-based; details: BC1, 72 h
# [19] = Cytotoxicity against human MC/CAR cells after 3 days by InCell analyser assay; assay type: functional, cell-based; details: 72 h
# [20] = Cytotoxicity against human MX1 cells after 3 days by InCell analyser assay; assay type: functional, cell-based; details: MX1, 72 h
# [21] = Cytotoxicity against human KLE cells after 3 days by InCell analyser assay; assay type: functional, cell-based; details: 72 h
# [22] = Cytotoxicity against human NALM1 cells after 3 days by InCell analyser assay; assay type: functional, cell-based; details: NALM1, 72 h
# [23] = Cytotoxicity against human U266B1 cells after 3 days by InCell analyser assay; assay type: functional, cell-based; details: U-266, 72 h
# [24] = Cytotoxicity against human SCLC3 cells after 3 days by InCell analyser assay; assay type: functional, cell-based; details: SCLC3, 72 h
# [25] = Cytotoxicity against human J82 cells after 3 days by InCell analyser assay; assay type: functional, cell-based; details: J82, 72 h
# [26] = Cytotoxicity against human DK-MG cells after 3 days by InCell analyser assay; assay type: functional, cell-based; details: 72 h
# [27] = Cytotoxicity against human MJ cells after 3 days by InCell analyser assay; assay type: functional, cell-based; details: 72 h
# [28] = Cytotoxicity against human AGS cells after 3 days by InCell analyser assay; assay type: functional, cell-based; details: 72 h
# [29] = Cytotoxicity against human A7 cells after 3 days by InCell analyser assay; assay type: functional, cell-based; details: 72 h
# [30] = Cytotoxicity against human C3A cells after 3 days by InCell analyser assay; assay type: functional, cell-based; details: 72 h
# [31] = Cytotoxicity against human DB cells after 3 days by InCell analyser assay; assay type: functional, cell-based; details: 72 h
# [32] = Cytotoxicity against human M14 cells after 3 days by InCell analyser assay; assay type: functional, cell-based; details: M14, 72 h
# [33] = Cytotoxicity against human HN5 cells after 3 days by InCell analyser assay; assay type: functional, cell-based; details: HN5, 72 h
# [34] = Cytotoxicity against human C-4I cells after 3 days by InCell analyser assay; assay type: functional, cell-based; details: 72 h
# [35] = Cytotoxicity against human H4 cells after 3 days by InCell analyser assay; assay type: functional, cell-based; details: H4, 72 h
# [36] = Cytotoxicity against human 5637 cells after 3 days by InCell analyser assay; assay type: functional, cell-based; details: Homo sapiens, 5637, 72 h
# [37] = Cytotoxicity against human CESS cells after 3 days by InCell analyser assay; assay type: functional, cell-based; details: 72 h
# [38] = Cytotoxicity against human HT3 cells after 3 days by InCell analyser assay; assay type: functional, cell-based; details: HT-3, 72 h
# [39] = Cytotoxicity against human T24 cells after 3 days by InCell analyser assay; assay type: functional, cell-based; details: T-24, 72 h
# [40] = Cytotoxicity against human EM2 cells after 3 days by InCell analyser assay; assay type: functional, cell-based; details: EM-2, 72 h
# [41] = Cytotoxicity against human ML2 cells after 3 days by InCell analyser assay; assay type: functional, cell-based; details: ML-2, 72 h
# [42] = Cytotoxicity against human Y79 cells after 3 days by InCell analyser assay; assay type: functional, cell-based; details: Y79, 72 h
# [43] = Cytotoxicity against human RD cells after 3 days by InCell analyser assay; assay type: functional, cell-based; details: 72 h
# [44] = Cytotoxicity against human COLO205 cells assessed as cell growth inhibition after 72 hrs by Cell Titre Glo assay; assay type: functional, cell-based; details: COLO 205, 72 h
# [45] = Cytotoxicity against human NCI-H929 cells assessed as cell growth inhibition after 72 hrs by Cell Titre Glo assay; assay type: functional, cell-based; details: NCI-H929, 72 h
# T2 sequence (P06213 28-758 limits assumed): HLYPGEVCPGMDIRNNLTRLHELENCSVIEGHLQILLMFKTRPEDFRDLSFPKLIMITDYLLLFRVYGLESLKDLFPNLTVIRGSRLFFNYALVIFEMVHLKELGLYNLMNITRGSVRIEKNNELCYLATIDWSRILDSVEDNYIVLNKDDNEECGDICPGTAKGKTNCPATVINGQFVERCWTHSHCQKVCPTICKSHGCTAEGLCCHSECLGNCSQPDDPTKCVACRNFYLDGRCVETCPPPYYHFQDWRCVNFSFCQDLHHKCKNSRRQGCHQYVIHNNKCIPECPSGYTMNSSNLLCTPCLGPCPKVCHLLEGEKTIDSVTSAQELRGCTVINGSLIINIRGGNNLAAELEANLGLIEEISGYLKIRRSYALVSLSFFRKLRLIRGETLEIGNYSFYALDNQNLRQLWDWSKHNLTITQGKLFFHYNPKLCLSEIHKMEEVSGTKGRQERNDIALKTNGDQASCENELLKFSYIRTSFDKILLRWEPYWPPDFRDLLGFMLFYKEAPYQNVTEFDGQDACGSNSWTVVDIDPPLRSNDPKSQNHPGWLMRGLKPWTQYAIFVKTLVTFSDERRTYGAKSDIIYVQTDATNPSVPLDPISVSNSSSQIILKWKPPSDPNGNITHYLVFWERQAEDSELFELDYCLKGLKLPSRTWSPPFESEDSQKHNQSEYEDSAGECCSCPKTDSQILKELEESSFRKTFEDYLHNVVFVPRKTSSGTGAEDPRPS
# T2 sequence (P06213 763-1382 limits assumed): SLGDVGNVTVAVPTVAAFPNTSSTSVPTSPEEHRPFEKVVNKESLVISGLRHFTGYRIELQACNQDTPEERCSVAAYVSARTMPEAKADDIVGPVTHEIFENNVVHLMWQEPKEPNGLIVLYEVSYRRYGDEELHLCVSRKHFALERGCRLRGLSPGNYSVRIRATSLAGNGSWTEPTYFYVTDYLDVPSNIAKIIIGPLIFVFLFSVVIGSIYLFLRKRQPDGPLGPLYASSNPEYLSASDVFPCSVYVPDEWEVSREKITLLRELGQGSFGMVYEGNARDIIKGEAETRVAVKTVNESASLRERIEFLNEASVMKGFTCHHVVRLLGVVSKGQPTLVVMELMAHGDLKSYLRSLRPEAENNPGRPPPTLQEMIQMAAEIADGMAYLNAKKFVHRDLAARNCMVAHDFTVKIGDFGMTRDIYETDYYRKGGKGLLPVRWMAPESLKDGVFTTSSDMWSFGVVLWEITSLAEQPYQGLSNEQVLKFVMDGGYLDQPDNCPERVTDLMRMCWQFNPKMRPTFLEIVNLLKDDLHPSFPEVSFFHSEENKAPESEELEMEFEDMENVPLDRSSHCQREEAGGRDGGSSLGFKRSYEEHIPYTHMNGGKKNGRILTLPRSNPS
structure (smiles),measurement,setting,value
CCOc1cc(N2CCC(CCS(C)(=O)=O)CC2)c(C)cc1Nc1nccc(-c2c(-c3ccc(OC)c(C(=O)Nc4c(F)cccc4F)c3)nc3cc(F)ccn23)n1,IC50,[1],< 100 nM
same,IC50,Insulin receptor [2],< 100 nM
CCOc1cc(N2CCC(CCS(C)(=O)=O)CC2)c(C)cc1Nc1nccc(-c2c(-c3ccc(OC)c(C(=O)Nc4c(F)cccc4F)c3)nc3ccccn23)n1,Activity,[3],Non-Toxic
CN(C)CCOc1cccc(Nc2nccc(-c3c(-c4cccc(C(=O)Nc5c(F)cc(F)cc5F)c4)nc4ccccn34)n2)c1,IC50,Insulin receptor [2],< 100 nM
COc1cc(N2CCC(N3CCN(CCS(C)(=O)=O)CC3)CC2)c(C)cc1Nc1nccc(-c2c(-c3cccc(C(=O)Nc4c(F)cccc4F)c3)nc3ccccn23)n1,IC50,[1],< 100 nM
same,IC50,Insulin receptor [2],< 100 nM
same,IC50,Insulin receptor [4],< 100 nM
COc1cc(N2CCC(N3CCN(S(C)(=O)=O)CC3)CC2)ccc1Nc1nccc(-c2c(-c3ccc(OC)c(C(=O)Nc4c(F)cccc4F)c3)nc3ccccn23)n1,IC50,[1],< 100 nM
same,IC50,Insulin receptor [2],< 100 nM
same,IC50,Insulin receptor [4],< 100 nM
CCOc1cc(C2CCN(CCS(C)(=O)=O)CC2)ccc1Nc1nccc(-c2c(-c3ccc(OC(C)C)c(C(=O)Nc4c(F)cccc4F)c3)nc3ccccn23)n1,IC50,[1],100 to 1000 nM
same,IC50,Insulin receptor [2],100 to 1000 nM
same,IC50,[5],< 100 nM
CCOc1cc(C2CCN(CCS(C)(=O)=O)CC2)ccc1Nc1nccc(-c2c(-c3ccc(OC)c(C(=O)Nc4c(F)cccc4F)c3)nc3ccccn23)n1,IC50,[1],< 100 nM
same,IC50,Insulin receptor [2],< 100 nM
same,IC50,Insulin receptor [4],< 100 nM
CCOc1cc(N2CCN(CCS(C)(=O)=O)CC2)c(C)cc1Nc1nccc(-c2c(-c3ccc(OC)c(C(=O)Nc4c(F)cccc4F)c3)nc3ccccn23)n1,IC50,[1],< 100 nM
same,IC50,Insulin receptor [2],< 100 nM
same,IC50,Insulin receptor [4],< 100 nM
COc1cc(N2CCC(CCS(C)(=O)=O)CC2)ccc1Nc1nccc(-c2c(-c3ccc(OC)c(C(=O)Nc4c(F)cccc4F)c3)nc3cc(F)ccn23)n1,IC50,[1],< 100 nM
same,IC50,Insulin receptor [2],< 100 nM
CCOc1ccc(-c2nc3ccccn3c2-c2ccnc(Nc3ccc(C4CCN(CCS(C)(=O)=O)CC4)cc3OC)n2)cc1C(=O)Nc1c(F)cccc1F,IC50,[1],< 100 nM
same,IC50,Insulin receptor [2],< 100 nM
same,IC50,Insulin receptor [4],< 100 nM
COc1cc(N2CCC(CCS(C)(=O)=O)CC2)c(C)cc1Nc1nccc(-c2c(-c3ccc(OC)c(C(=O)Nc4c(F)cccc4F)c3)nc3cc(F)ccn23)n1,IC50,[1],< 100 nM
same,IC50,Insulin receptor [2],< 100 nM
same,IC50,Insulin receptor [4],< 100 nM
CCc1cc(Nc2nccc(-c3c(-c4ccc(OC)c(C(=O)Nc5c(F)cccc5F)c4)nc4ccccn34)n2)c(OC)cc1N1CCC(N2CCN(S(C)(=O)=O)CC2)CC1,Activity,[6],Non-Toxic
same,Activity,[7],Non-Toxic
CCOc1cc(N2CCC(N3CCN(S(C)(=O)=O)CC3)CC2)c(CC)cc1Nc1nccc(-c2c(-c3ccc(OCC)c(C(=O)Nc4c(F)cccc4F)c3)nc3ccccn23)n1,IC50,[1],100 to 1000 nM
same,IC50,Insulin receptor [2],100 to 1000 nM
same,IC50,[5],< 100 nM
COc1cc(N2CCC(N3CCCCC3)CC2)ccc1Nc1nccc(-c2c(-c3cccc(C(=O)Nc4c(F)cccc4F)c3)nc3ccccn23)n1,IC50,[8],1000 to 5000 nM
same,IC50,[9],1000 to 5000 nM
same,IC50,[10],< 1000 nM
same,IC50,[11],< 1000 nM
same,IC50,[12],1000 to 5000 nM
same,IC50,[13],1000 to 5000 nM
same,IC50,[14],1000 to 5000 nM
same,IC50,[15],1000 to 5000 nM
same,IC50,[16],1000 to 5000 nM
same,IC50,[17],1000 to 5000 nM
same,IC50,[18],1000 to 5000 nM
same,IC50,[19],1000 to 5000 nM
same,IC50,[20],1000 to 5000 nM
same,IC50,[21],1000 to 5000 nM
same,IC50,[22],1000 to 5000 nM
same,IC50,[23],1000 to 5000 nM
same,IC50,[24],1000 to 5000 nM
same,IC50,[25],1000 to 5000 nM
same,IC50,[26],1000 to 5000 nM
same,IC50,[27],1000 to 5000 nM
same,IC50,[28],1000 to 5000 nM
same,IC50,[29],1000 to 5000 nM
same,IC50,[30],1000 to 5000 nM
same,IC50,[31],1000 to 5000 nM
same,IC50,[32],1000 to 5000 nM
same,IC50,[33],1000 to 5000 nM
same,IC50,[34],1000 to 5000 nM
same,IC50,[35],> 5000 nM
same,IC50,[36],> 5000 nM
same,IC50,[37],> 5000 nM
same,IC50,[38],> 5000 nM
same,IC50,[39],> 5000 nM
same,IC50,[40],> 5000 nM
same,IC50,[41],> 5000 nM
same,IC50,[42],> 5000 nM
same,IC50,[43],> 5000 nM
COc1cc(C2CCN(CCS(C)(=O)=O)CC2)ccc1Nc1nccc(-c2c(-c3ccc(OC)c(C(=O)Nc4c(F)cccc4F)c3)nc3ccccn23)n1,IC50,[1],< 100 nM
same,IC50,Insulin receptor [2],< 100 nM
CCOc1cc(N2CCN(CCS(C)(=O)=O)CC2)c(C)cc1Nc1nccc(-c2c(-c3ccc(OC(C)C)c(C(=O)Nc4c(F)cccc4F)c3)nc3ccccn23)n1,IC50,[1],100 to 1000 nM
same,IC50,Insulin receptor [2],< 100 nM
same,IC50,[5],< 100 nM
same,IC50,Insulin receptor [4],< 100 nM
COc1cc(N2CCC(N3CCCCC3)CC2)ccc1Nc1nccc(-c2c(-c3cccc(C(=O)Nc4c(F)cccc4F)c3)nc3cc(C(F)(F)F)ccn23)n1,IC50,[1],< 100 nM
same,IC50,Insulin receptor [2],< 100 nM
same,IC50,[5],100 to 500 nM
same,IC50,Insulin receptor [4],> 500 nM
COc1cc(N2CCC(N3CCN(CCF)CC3)CC2)c(Cl)cc1Nc1nccc(-c2c(-c3cccc(C(=O)Nc4c(F)cccc4F)c3)nc3ccccn23)n1,IC50,[44],250 to 1000 nM
same,IC50,[45],< 250 nM

# — ChEMBL document CHEMBL3882727, “Imidazopyridine Kinase Inhibitors” (2008)
